Test results from ChEMBL document CHEMBL1136226, “Design and synthesis of new benzimidazole-arylpiperazine derivatives acting as mixed 5-HT1A/5-HT3 ligands” (Bioorg Med Chem Lett, 2003).

Key:
[1] = molecular target: T1, 5-hydroxytryptamine receptor 1A (Rattus norvegicus, UniProt P19327); experiment: Displacement of [3H]8-OH-DPAT from 5-hydroxytryptamine 1A receptor of rat cerebral cortex membranes; type: cell membranes, Membrane
T1 sequence (P19327 whole entry): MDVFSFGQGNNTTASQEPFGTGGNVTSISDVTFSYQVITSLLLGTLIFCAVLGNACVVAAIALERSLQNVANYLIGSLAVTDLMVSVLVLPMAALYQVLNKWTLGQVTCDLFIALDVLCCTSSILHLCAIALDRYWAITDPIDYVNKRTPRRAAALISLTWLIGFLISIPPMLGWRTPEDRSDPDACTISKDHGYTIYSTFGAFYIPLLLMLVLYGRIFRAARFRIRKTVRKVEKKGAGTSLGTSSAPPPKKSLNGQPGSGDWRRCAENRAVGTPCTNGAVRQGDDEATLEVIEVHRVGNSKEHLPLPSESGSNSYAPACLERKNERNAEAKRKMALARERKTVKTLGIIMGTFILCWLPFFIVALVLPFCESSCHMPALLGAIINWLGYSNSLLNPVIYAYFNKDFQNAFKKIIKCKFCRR

[2] = molecular target: T2, Serotonin 3 (5-HT3) receptor (Rattus norvegicus, UniProt P35563+Q9JJ16); experiment: Binding affinity for 5-HT3 receptor by displacement of [3H]-LY 278584 in rat cerebral cortex membranes; type: cell membranes, Membrane
T2 sequence (P35563 whole entry): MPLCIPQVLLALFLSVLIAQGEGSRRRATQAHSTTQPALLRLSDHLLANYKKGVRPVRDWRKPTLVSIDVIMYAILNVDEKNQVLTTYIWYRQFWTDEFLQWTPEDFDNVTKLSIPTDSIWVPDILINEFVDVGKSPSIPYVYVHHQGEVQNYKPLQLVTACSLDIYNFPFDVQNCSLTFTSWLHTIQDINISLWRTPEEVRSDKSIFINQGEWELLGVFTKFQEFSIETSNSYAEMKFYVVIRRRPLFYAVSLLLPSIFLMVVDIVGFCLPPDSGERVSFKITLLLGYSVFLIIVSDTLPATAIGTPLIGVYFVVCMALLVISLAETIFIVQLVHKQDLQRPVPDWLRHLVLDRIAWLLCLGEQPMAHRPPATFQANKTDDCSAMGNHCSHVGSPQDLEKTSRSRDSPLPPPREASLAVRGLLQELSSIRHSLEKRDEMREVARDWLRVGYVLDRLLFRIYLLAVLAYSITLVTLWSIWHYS
T2 sequence (Q9JJ16 whole entry): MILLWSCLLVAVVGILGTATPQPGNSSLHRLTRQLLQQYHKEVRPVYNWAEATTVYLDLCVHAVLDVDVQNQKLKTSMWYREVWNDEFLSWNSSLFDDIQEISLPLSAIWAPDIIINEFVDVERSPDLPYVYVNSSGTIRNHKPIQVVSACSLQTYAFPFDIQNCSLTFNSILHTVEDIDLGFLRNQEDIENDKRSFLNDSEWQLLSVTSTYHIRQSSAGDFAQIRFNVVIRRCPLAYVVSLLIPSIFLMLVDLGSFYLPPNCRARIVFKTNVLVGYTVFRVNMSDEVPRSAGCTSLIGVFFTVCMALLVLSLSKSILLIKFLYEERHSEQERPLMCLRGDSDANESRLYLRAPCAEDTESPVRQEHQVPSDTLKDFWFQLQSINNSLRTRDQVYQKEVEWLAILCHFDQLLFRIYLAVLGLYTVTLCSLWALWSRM

Cavia porcellus = organism: Cavia porcellus; experiment: Blockade of isolated longitudinal muscle myenteric plexus contraction from guinea-pig ileum; type: functional; conditions: Muscle tissue

Molecule `CCCOc1ccccc1N1CCN(Cc2nc3c(C(=O)NC4CN5CCC4CC5)cccc3[nH]2)CC1` (centres undefined) has a Ki [1] of 56.1 nM and a Ki [2] of 24.6 nM.
Work on `CCCCOc1ccccc1N1CCN(Cc2nc3c(C(=O)NC4CN5CCC4CC5)cccc3[nH]2)CC1` (centres undefined) yielded a Ki [1] of 45.9 nM and a Ki [2] of 15.1 nM.
With `O=C(NC1CN2CCC1CC2)c1cccc2nc(CN3CCN(c4cccc5nc[nH]c45)CC3)[nH]c12` (centres undefined) the Ki [1] was 148 nM and the Ki [2] was over 1000 nM.
Molecule `O=C(NC1CN2CCC1CC2)c1cccc2nc(CN3CCN(c4cccc(C(F)(F)F)c4)CC3)[nH]c12` (centres undefined) has a Ki [1] of over 10000 nM and a Ki [2] of 23.9 nM.
Work on `CC(C)Oc1ccccc1N1CCN(Cc2nc3cccc(C(=O)NC4CN5CCC4CC5)c3[nH]2)CC1` (centres undefined) yielded a Ki [1] of 34.4 nM and a Ki [2] of 62.1 nM.
`COc1ccccc1N1CCN(Cc2nc3cccc(C(=O)NC4CN5CCC4CC5)c3[nH]2)CC1` (centres undefined) showed a Ki [1] of 150 nM and a Ki [2] of 10.3 nM.
`O=C(NC1CN2CCC1CC2)c1cccc2nc(CN3CCN(c4ccccc4)CC3)[nH]c12` (centres undefined) gave a Ki [1] of over 1000 nM and a Ki [2] of 23.1 nM.
`Cc1nccn1CC1CCc2c(c3ccccc3n2C)C1=O` (centres undefined) [ONDANSETRON] was tested, and the IC50 (Cavia porcellus) was 240 nM.
`O=C(NC1CN2CCC1CC2)c1cccc2[nH]c(CN3CCN(c4ccc5c(c4)OCO5)CC3)nc12` (centres undefined) gave a Ki [1] of 467 nM and a Ki [2] of 24 nM.
`O=C(NC1CN2CCC1CC2)c1cccc2[nH]c(CN3CCN(c4cccc(Cl)c4)CC3)nc12` (centres undefined) gave a Ki [1] of over 10000 nM and a Ki [2] of 18.3 nM.
With `O=C(NC1CN2CCC1CC2)c1cccc2[nH]c(CN3CCN(c4cccc5ccccc45)CC3)nc12` (centres undefined) the Ki [1] was over 1000 nM and the Ki [2] was 32.5 nM.
`CCOc1ccccc1N1CCN(Cc2nc3c(C(=O)NC4CN5CCC4CC5)cccc3[nH]2)CC1` (centres undefined) gave a Ki [1] of 18 nM, a Ki [2] of 27.2 nM and an IC50 (Cavia porcellus) of 190 nM.
